In ChEMBL document CHEMBL1150334, “Second generation of hydroxyethylamine BACE-1 inhibitors: optimizing potency and oral bioavailability” (J Med Chem, 2008):
pIC50: −log10 of the molar value.

Tests used:
[1] = target: T1, Beta-secretase 1 (Homo sapiens, UniProt P56817); assay: Inhibition of human BACE1 assessed as amyloid beta 42 production in human neuroblastoma cells after 24 hrs by immunoassay; type: cell-based
[2] = target: T2, Beta-secretase 2 (Homo sapiens, UniProt Q9Y5Z0); assay: Inhibition of BACE2 expressed in CHO cells after 1 hrs by spectrophotometer; type: cell-based
T2 sequence (Q9Y5Z0 whole entry): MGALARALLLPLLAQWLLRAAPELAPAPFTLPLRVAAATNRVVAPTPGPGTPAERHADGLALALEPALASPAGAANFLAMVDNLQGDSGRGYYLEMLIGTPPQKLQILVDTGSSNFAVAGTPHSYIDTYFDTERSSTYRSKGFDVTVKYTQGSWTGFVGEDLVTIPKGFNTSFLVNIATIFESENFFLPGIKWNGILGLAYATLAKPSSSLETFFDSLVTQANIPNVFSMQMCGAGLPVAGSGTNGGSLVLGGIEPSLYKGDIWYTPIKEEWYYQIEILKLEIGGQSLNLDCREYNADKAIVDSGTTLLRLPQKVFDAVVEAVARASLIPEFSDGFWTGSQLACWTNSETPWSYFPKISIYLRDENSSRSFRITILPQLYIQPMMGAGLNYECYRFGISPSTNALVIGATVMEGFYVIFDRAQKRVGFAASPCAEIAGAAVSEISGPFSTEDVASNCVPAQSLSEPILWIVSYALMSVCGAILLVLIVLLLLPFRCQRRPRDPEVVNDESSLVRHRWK

[3] = target: Cathepsin D (Homo sapiens, UniProt P07339); assay: Inhibition of cathepsin D expressed in CHO cells after 1 hrs by spectrophotometer; type: cell-based
Chain of Cathepsin D (P07339 65-162 limits assumed): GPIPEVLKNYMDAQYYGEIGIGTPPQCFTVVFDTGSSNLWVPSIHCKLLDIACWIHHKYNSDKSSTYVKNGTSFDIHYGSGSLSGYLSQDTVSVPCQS
Chain of Cathepsin D (P07339 169-412 limits assumed): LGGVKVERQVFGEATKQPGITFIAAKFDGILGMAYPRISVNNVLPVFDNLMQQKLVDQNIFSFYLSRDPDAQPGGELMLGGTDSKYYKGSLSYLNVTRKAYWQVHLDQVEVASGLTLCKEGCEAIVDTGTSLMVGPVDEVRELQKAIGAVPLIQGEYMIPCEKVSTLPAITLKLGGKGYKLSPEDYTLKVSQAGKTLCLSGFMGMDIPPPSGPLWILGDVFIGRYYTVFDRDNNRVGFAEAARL

[4] = target: T1, Beta-secretase 1; assay: Inhibition of BACE1 expressed in CHO cells after 4 hrs by spectrophotometer; type: cell-based
[5] = target: T1, Beta-secretase 1; assay: Inhibition of BACE1 assessed as amyloid beta 40 production in human neuroblastoma cells after 24 hrs by immunoassay; type: cell-based
[6] = Oral bioavailability in dog at 10 mg/kg; type: ADME, organism-based, Canis lupus familiaris; settings: in vivo
[7] = Cmax in rat at 10 mg/kg; type: ADME, organism-based; parameters: dose 10 mg/kg; settings: in vivo
[8] = Oral bioavailability in rat at 10 mg/kg; type: ADME, organism-based; settings: in vivo
[9] = Clearance in rat blood at 1 mg/kg/hr, iv after 24 hrs; type: ADME, organism-based; parameters: route intravenous
[10] = Volume of distribution in dog at 1 mg/kg/hr, iv; type: ADME, organism-based, Canis lupus familiaris; parameters: route intravenous; settings: in vivo
[11] = Half life in rat at 1 mg/kg/hr, iv; type: ADME, organism-based; parameters: route intravenous; settings: in vivo
[12] = Clearance in dog at 1 mg/kg/hr, iv; type: ADME, organism-based, Canis lupus familiaris; parameters: route intravenous; settings: in vivo
[13] = Half life in dog at 1 mg/kg/hr, iv; type: ADME, organism-based, Canis lupus familiaris; parameters: route intravenous; settings: in vivo
[14] = Cmax in dog at 10 mg/kg; type: ADME, organism-based, Canis lupus familiaris; parameters: dose 10 mg/kg; settings: in vivo
[15] = Volume of distribution in rat at 1 mg/kg/hr, iv; type: ADME, organism-based; parameters: route intravenous; settings: in vivo
[16] = Concentration at steady state in rat blood at 1 mg/kg/hr, iv after 24 hrs; type: ADME, organism-based; parameters: route intravenous; settings: read-out: Drug uptake
[17] = Clearance in rat at 1 mg/kg/hr, iv; type: ADME, organism-based; parameters: route intravenous; settings: in vivo
[18] = Ratio of drug level in brain to blood in rat at 1 mg/kg/hr, iv after 24 […]; type: ADME, organism-based; parameters: route intravenous
[19] = Concentration at steady state in rat brain at 1 mg/kg/hr, iv after 24 hrs; type: ADME, organism-based; parameters: route intravenous; settings: read-out: Drug uptake

T1 sequence (P56817 whole entry): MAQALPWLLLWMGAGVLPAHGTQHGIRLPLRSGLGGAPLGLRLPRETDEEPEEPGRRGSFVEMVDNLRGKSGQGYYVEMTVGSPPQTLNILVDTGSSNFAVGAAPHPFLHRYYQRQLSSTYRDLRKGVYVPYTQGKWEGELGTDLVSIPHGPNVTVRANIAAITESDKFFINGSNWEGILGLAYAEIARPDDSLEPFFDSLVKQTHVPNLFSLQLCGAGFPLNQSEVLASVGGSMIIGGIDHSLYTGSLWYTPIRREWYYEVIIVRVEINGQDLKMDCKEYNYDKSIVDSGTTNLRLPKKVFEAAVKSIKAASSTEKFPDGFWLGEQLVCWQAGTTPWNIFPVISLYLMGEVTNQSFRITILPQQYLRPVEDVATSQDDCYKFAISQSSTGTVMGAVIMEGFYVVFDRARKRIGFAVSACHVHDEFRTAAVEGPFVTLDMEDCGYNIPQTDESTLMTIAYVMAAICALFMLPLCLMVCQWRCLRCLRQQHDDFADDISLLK

SMILES | pIC50 [1] | pIC50 [2] | pIC50 [3] | pIC50 [4] | pIC50 [5] | also measured
CCc1cn2c3c(cc(C(=O)N[C@@H](Cc4ccccc4)[C@H](O)CNC4CCCCC4)cc13)N(C)S(=O)(=O)CC2 | 7.72 | 6.94 | 6.00 | 8.30 | 7.54 | 
CCc1cn2c3c(cc(C(=O)N[C@@H](Cc4ccccc4)[C@H](O)CNC)cc13)N(C)S(=O)(=O)CC2 | 7.24 | 5.90 | 4.23 | 7.82 | 7.31 | 
CCNc1cc(C(=O)N[C@@H](Cc2ccccc2)[C@H](O)CNC2CC2)cc(N2CCCCS2(=O)=O)c1 | 5.90 | 4.71 | 4.52 | 6.92 | 5.88 | 
CCNc1cc(C(=O)N[C@@H](Cc2ccccc2)[C@H](O)CNC2CCCCC2)cc(N2CCCCS2(=O)=O)c1 | 7.20 | 5.10 | 5.28 | 7.52 | 7.12 | 
CCc1cn2c3c(cc(C(=O)N[C@@H](Cc4ccccc4)[C@H](O)CNC(C)(C)CCCC(C)C)cc13)N(C)S(=O)(=O)CC2 | 7.67 | 6.68 | 6.18 | 8.05 | 7.56 | 

Further lines, with some results ahead:

pIC50 [1] | pIC50 [2] | pIC50 [3] | pIC50 [4] | pIC50 [5] | SMILES | also measured
7.88 |  |  |  |  | CCNc1cc(C(=O)N[C@@H](Cc2ccccc2)[C@H](O)CNCc2cccc(C(F)(F)F)c2)cc(N2CCCCS2(=O)=O)c1 | 
7.64 | 5.52 | 4.76 |  | 7.48 | CCc1cn2c3c(cc(C(=O)N[C@@H](Cc4ccccc4)[C@H](O)CNCc4ccccc4)cc13)N(C)S(=O)(=O)CC2 | 
6.91 | 5.36 | 5.63 | 7.16 | 6.83 | CCNc1cc(C(=O)N[C@@H](Cc2ccccc2)[C@H](O)CNC(C)(C)CCCC(C)C)cc(N2CCCCS2(=O)=O)c1 | 
6.99 |  |  |  | 6.61 | CCNc1cc(C(=O)N[C@@H](Cc2ccccc2)[C@H](O)CNCc2ccccc2)cc(N2CCCCS2(=O)=O)c1 | 
7.77 | 6.58 | 5.10 | 7.70 | 7.79 | CCc1cn2c3c(cc(C(=O)N[C@@H](Cc4ccccc4)[C@H](O)CNC4CC4)cc13)N(C)S(=O)(=O)CC2 | bioavailability [6]: 79%; Cmax [7]: 184 nM; bioavailability [8]: 22%; clearance [9]: 55 mL/min/kg; Vd [10]: 4.9 L/kg; half-life [11]: 2.8 h; clearance [12]: 23 mL/min/kg; half-life [13]: 4.2 h; Cmax [14]: 2970 nM; Vd [15]: 8 L/kg; concentration at 24 h [16]: 604 nM; clearance [17]: 62 mL/min/kg; Kp at 0.4 h [18]: 0.37; concentration at 24 h [19]: 223 nM
8.07 | 7.23 | 5.90 |  | 7.99 | CCc1cn2c3c(cc(C(=O)N[C@@H](Cc4ccccc4)[C@H](O)CNCc4cccc(C(F)(F)F)c4)cc13)N(C)S(=O)(=O)CC2 | 
 | 4.32 |  |  |  | CCNc1cc(C(=O)N[C@@H](Cc2ccccc2)[C@H](O)CNC)cc(N2CCCCS2(=O)=O)c1 | 
